Reference: paper PMC6381024, “Probing Anti-inflammatory Properties Independent of NF-κB Through Conformational Constraint of Peptide-Based Interleukin-1 Receptor Biased Ligands” (Frontiers in Chemistry, 2019)

Key:
JNK = experiment: IL-1β-induced JNK phosphorylation, Western blot in RAW Blue cells; type: cell-based; design: key to Western Blot JNK (heatmap grade of inhibition): 0: No effect; No effect 01234 Maximum inhibition/efficacy; No effect 01234 Maximum inhibition/efficacy; No effect 01234 Maximum inhibition/efficacy; 4: Maximum inhibition/efficacy; settings: for Western Blot JNK (heatmap grade of inhibition): RAW Blue cells, peptide 10^-6 M or Kineret 1.0 mg/mL 30 min, then IL-1β 100 ng/mL 15 min
Method: RAW Blue cells (Invivogen) were grown under standard conditions (37°C, 5% CO2) and maintained under passage number 15. Cells were equilibrated with 1, 5, or 6 (10^−6M) or Kineret (1.0 mg/mL) for 30 min, after which time they were exposed to IL-1β (100 ng/mL) for 15 min. Cells were harvested and lysed on ice for 30 min using a radioimmunoprecipitation assay buffer (Cell Signaling) supplemented with 1 mM phenylmethylsulfonyl fluoride (PMSF) and cOmplete™ EDTA-free protease inhibitor cocktail (Roche, Mannheim, Germany, prepared according to the manufacturer's instructions). Protein concentrations were determined using a Bradford protein assay (Bio-Rad) on 96-well plates with a microplate reader (EnVision Multilabel reader) measuring OD at […]. Bovine serum albumin serial dilutions were used to generate a standard curve. Lysates were then mixed with 4X reducing sample buffer (Bio-Rad).
Lysates were loaded (30 μg protein per well) in a 5% acrylamide stacking gel, and samples were electrophoresed in a 12% acrylamide resolving gel for 1.5 h at 120 V, followed by a 1 h transfer onto polyvinylidene difluoride (PDVF) membranes at 100 V. Membranes were blocked and incubated with 1:1,000 dilution of primary antibody and 1:20,000 dilution of secondary antibodies according to the manufacturer's instructions. Antibodies used were for phospho-p38 MAPK (Cell Signaling, #9211), p38 MAPK (Cell Signaling, #9212), SAPK/JNK (Cell Signaling, #9252), phospho-SAPK/JNK (Cell Signaling, #9251), ROCK2 (Thermo Fisher Scientific PA5-21131), phospho-ROCK2 (Thermo Fisher Scientific PA5-34895), and goat anti-rabbit conjugated to horseradish peroxidase (Abcam, ab6721). Membranes were imaged using an Amersham Imager 600 (GE Healthcare) using Clarity Western ECL Substrate (Bio-Rad). The intensity of protein bands was quantified using ImageJ and standardized using total (phosphorylated + non-phosphorylated) protein content. Data are representative of three independent experiments.
Figure 7 The effects of peptides 1, 5, and 6 on IL-1β-induced phosphorylation of JNK, ROCK2, and p38. Graphical representations of band density analysis of Western Blots, sorted into columns based on protein of interest (JNK, ROCK2, or p38) and rows by peptide configuration [(3R-) or (3S)]. RAW-blue cells were pretreated with peptides 1, 5, 6, Kineret, or vehicle for 30 min and then stimulated with IL-1β for 15 min. Images of representative Western Blots can be found in the Supplementary Figure 1. Results shown are the average of 3 independent experiments: ^*p < 0.05, ^**p < 0.01, ^***p < 0.001, ^****p < 0.0001 compared to group treated only with IL-1β. Treatment groups that are not labeled with asterisks are statistically non-significant compared to group treated only with IL-1β.

Sprague Dawley rat pups = experiment: Oxygen-induced retinopathy (OIR), retinal vaso-obliteration in rat pups; type: in vivo; design: key to In vivo OIR (heatmap grade of efficacy): 0: No effect; No effect 01234 Maximum inhibition/efficacy; No effect 01234 Maximum inhibition/efficacy; No effect 01234 Maximum inhibition/efficacy; 4: Maximum inhibition/efficacy; settings: for In vivo OIR (heatmap grade of efficacy): Sprague Dawley rat pups, 80% O2 P5-P10, Kineret 3 mg/kg/day (legend: 15 mg/kg/day), twice-daily i.p.; for In vivo OIR (heatmap grade of efficacy) / Extent of vaso-obliteration (area as percentage of total retinal area) after treatment: peptides 2 mg/kg/day; for Extent of vaso-obliteration (area as percentage of total retinal area) after treatment / Efficacy against vaso-obliteration in the OIR model: rat pups, 80% oxygen days 5 to 10; for Extent of vaso-obliteration (area as percentage of total retinal area) after treatment: Kineret 3 mg/kg/day (legend: 15 mg/kg/day) i.p., untreated ~35%; for Efficacy against vaso-obliteration in the OIR model: 2 mg/kg/day i.p.
Excerpt: On P5, litters were transferred to a controlled hyperoxic environment (Biospherix OxyCycler A84XOV) and maintained at 80 ± 1% O2, which is used to induce vaso-obliteration of the retinal vasculature. At this timepoint, the vasculature is immature and particularly susceptible to […] insults resulting in vaso-obliteration, a defining characteristic of the early stage of retinopathies in premature infants (Garner and Ashton, [1971]). Control litters were not exposed to hyperoxia and were kept in standard conditions with room air (21% O2). To control for the effects of hyperoxia on the lactation of the dams, dams of hyperoxic litters were switched with dams of control litters on P8.
In litters exposed to hyperoxia, pups were randomized to receive phosphate-buffered saline (PBS) vehicle, 2 mg/kg/day of peptides 1, 5, or 6 or 3 mg/kg/day of Kineret from P5 to P10. These doses were determined from our previous study (Rivera et al., [2013]) and administered in twice-daily intra-peritoneal injections titrated to 20 μL per injection with 28-gauge insulin syringes. A total of 6–8 pups were used for each treatment group.
On P10, pups were euthanized by decapitation under 2% isoflurane anesthesia. Eyes were enucleated and fixed in 4% paraformaldehyde for 1 h at room temperature before washing twice with PBS and storage at 4°C in PBS until further processing.
Under a dissecting microscope, the cornea and lens were gently removed from the eyes and remnants of the hyaloid vasculature were removed from the retinas using surgical scissors and tweezers. The retinas were gently removed from the underlying sclera/choroid complex.
Retinas were treated at room temperature for 1 h with a blocking solution consisting of 1% bovine serum albumin (BSA), 1% normal goat serum, 0.1% Triton X-100 and 0.05% Tween-20 in PBS. The retinas were then double-labeled overnight at 4°C with gentle shaking in an antibody solution consisting of 1 mM CaCl2, 1% Triton X-100, 1% TRITC-conjugated lectin cell endothelial marker from Bandeiraea simplicifolia (Sigma-Aldrich, St Louis, MO) and a 1:500 dilution of rabbit anti-ionized calcium-binding adapter molecule (Iba)-1 antibody (Wako Chemicals USA) in PBS. The retinas were then washed thrice with PBS and incubated with a secondary antibody solution consisting of 1% BSA, 0.1% Triton X-100, 0.05% Tween-20 and 1:500 Alexa-594-conjugated donkey anti-rabbit IgG (ThermoFisher Scientific, Rockford, IL) in PBS for 2 h at room temperature. Retinas were washed thrice with PBS and then flat-mounted onto glass slides with coverslips and Fluoro-Gel mounting medium (Electron Microscopy Sciences, Hatfield, PA).
For assessment of vaso-obliteration, retinas were imaged using an epifluorescence microscope at 10X magnification (Zeiss AxioImager Z2) and version 4.8 of the AxioVision software. Images were captured and stitched together using the software's MosaiX feature. Iba-1 staining was assessed with the same microscope at 20X magnification, and a total of 4 fields per retina were imaged halfway between the optic nerve and the edge of the retina.
The FIJI software was used to the quantify the area of vaso-obliteration in each retina, expressed as a percentage of the area of the whole retina. The number of Iba-1-positive cells was counted using the cell counter plug-in in FIJI, and the average of cell counts in 4 fields per retina was calculated.
Figure 10 The preventive effects of peptides 1, 5, and 6 against vaso-obliteration in an OIR model. Five-days old Sprague Dawley pups and their mothers were kept in 80% oxygen until the 10 day of life, receiving twice-daily intraperitoneal injections of peptides 1, 5, and 6 (2 mg/kg/day), Kineret (15 mg/kg/day) or PBS vehicle (each injection was titrated to a volume of 20 μL). (A) Representative retinal flatmounts stained with FITC-conjugated Bandeiraea simplicifolia lectin, taken at 10X magnification and stitched with MosaiX in Axiovision 4.8. […]

| Substance | Western Blot JNK (heatmap grade of inhibition) (JNK) | In vivo OIR (heatmap grade of efficacy) (Sprague Dawley rat pups) | Extent of vaso-obliteration (area as percentage of total retinal area) after treatment (Sprague Dawley rat pups) | Efficacy against vaso-obliteration in the OIR model (Sprague Dawley rat pups) | Inhibition of IL-1β-induced JNK phosphorylation (JNK; RAW-blue cells, 10^-6 M, 30 min, then IL-1β 15 min) |
| --- | --- | --- | --- | --- | --- |
| Kineret: FDA-approved recombinant IL-1 receptor antagonist | 4 | 3 | 15–20% |  |  |
| H-D-Arg-D-Tyr-(S)-Agl-D-Val-D-Glu-D-Leu-D-Ala-NH2 [[(3S)-Agl^3]-1] | 4 | 1 |  | inactivity |  |
| H-D-Arg-D-Tyr-(3R,4R)-Hgl-D-Val-D-Glu-D-Leu-D-Ala-NH2 [[(3R,4R)-Hgl^3]-1] | 0 |  |  |  |  |
| H-D-Arg-D-Tyr-(3R,4S)-Hgl-D-Val-D-Glu-D-Leu-D-Ala-NH2 [[(3R,4S)-Hgl^3]-1] | 4 | 4 | 15–25% |  |  |
| H-D-Arg-D-Tyr-(S)-Agl-(S)-Val-D-Glu-D-Leu-D-Ala-NH2 [[(3S)-Agl^3-(S)-Val^4]-1] | 0 |  |  |  |  |
| H-D-Arg-D-Tyr-(R)-Agl-(S)-Val-D-Glu-D-Leu-D-Ala-NH2 [[(3R)-Agl^3-(S)-Val^4]-1] | 0 |  |  |  |  |
| H-D-Arg-D-Tyr-(R)-Agl-D-Val-D-Glu-D-Leu-D-Ala-NH2 [[(3R)-Agl^3]-1] | 4 | 0 |  | inactivity |  |
| H-D-Arg-D-Tyr-(3S,4R)-Hgl-D-Val-D-Glu-D-Leu-D-Ala-NH2 [[(3S,4R)-Hgl^3]-1] | 3 | 4 | 15–25% |  |  |
| H-D-Arg-D-Tyr-(3R,4R)-Hgl-(S)-Val-D-Glu-D-Leu-D-Ala-NH2 [[(3R,4R)-Hgl^3-(S)-Val^4]-1] | 1 |  |  |  |  |
| H-D-Arg-D-Tyr-D-Thr-D-Val-D-Glu-D-Leu-D-Ala-NH2 [Peptide 1] | 4 | 4 | 15–20% |  | inhibited the effects of all three kinases |
| H-D-Arg-D-Tyr-(3R,4S)-Hgl-(S)-Val-D-Glu-D-Leu-D-Ala-NH2 [[(3R,4S)-Hgl^3-(S)-Val^4]-1] | 2 |  |  |  |  |
